Measurements: paper PMC8375385, “In vitro Effect of Harmine Alkaloid and Its N-Methyl Derivatives Against Toxoplasma gondii” (Frontiers in Microbiology, 2021)
Entries after “also recorded” stand apart in the source; their conditions may differ. Read-outs that look alike come from different tables or passages of the source.

Columns and labels:
T. gondii γH2A.X = assay: Western blot of γH2A.X in intracellular tachyzoites; type: cell-based, Toxoplasma gondii; conditions: 2 days; for γH2A.X levels: intracellular tachyzoites, CPT 10 μM or 3 7.5 μM alone
Description: Monolayers of hTERT cells grown in 12-well plates were infected with 5 × 10^6 tachyzoites of the RH Δhxgprt strain. After the invasion process, cells were washed with PBS and incubated with 3 (7.5 μM), CPT (10 μM), 3 (7.5 μM) plus CPT (10 μM), or the vehicle (DMSO), diluted in supplemented DMEM for 2 days. Then, infected cells were harvested by trypsinization, centrifuged, resuspended in PBS, and lysed by freeze–thaw cycling. Samples were resolved by SDS-PAGE (15%), and a western blot assay was conducted. Membranes were incubated (1 h, RT) with rabbit anti-T. gondii γH2A.X (1:500) ([Contreras et al., 2021]) and murine anti-SAG1 (Novus Biologicals, 1:500). Finally, they were washed several times with PBS-T and incubated with alkaline phosphatase-conjugated anti-rabbit or anti-mouse secondary antibodies, diluted to 1:4,000 (Santa Cruz Biotechnology). Immunoreactive protein bands were visualized by the NBT-BCIP (Promega) method. Densitometric analysis of scanned images was performed using the Image-Pro Plus software.

[1] = test system: T. gondii RH RFP tachyzoites; assay: Lytic cycle growth assay (RFP fluorescence); type: cell-based, Toxoplasma gondii; conditions: for selectivity index (SI): CC50 hTERT 4 days / IC50 at 4 d.p.i.; for effect on tachyzoite growth: up to 10 μM, 3 d.p.i.; for IC50: Toxoplasma gondii, Fibroblast
[2] = test system: T. gondii RH Δhxgprt tachyzoites; design: method as in Alomar et al. (2013); conditions: 1-h-pretreated extracellular tachyzoites, 25–40 μM, 1 day of incubation; ref Alomar et al. (2013); cited from earlier work
[3] = MTT cytotoxicity on Vero host cells, 2 days; conditions: African green monkey (Cercopithecus aethiops), CC50, Vero cells, 2 days of treatment (Table 1 footnote a)
Vero cells = assay: MTT cytotoxicity on Vero host cells, 2 days; conditions: Vero cells, 2 days of treatment (Table 1 footnote a)
topoisomerase I = test system: topoisomerase I; design: method as in Cao et al., 2005; conditions: cell-free system, ref Cao et al., 2005, cited from earlier work
[4] = test system: T. gondii RH Δhxgprt tachyzoites; assay: Tachyzoite cell cycle analysis by flow cytometry; type: cell-based, Toxoplasma gondii; conditions: infected hTERT fibroblasts, 2 days; 1–3 at 7.5 μM, SDZ at 500 μM
Description: Tachyzoites of the RH Δhxgprt strain (3 × 10^6) were added to hTERT cell monolayers grown into six-well plates. After invasion was allowed, the medium was changed, and infected cells were incubated for 2 days with 1, 2, and 3 (7.5 μM); SDZ (500 μM, positive control); or the vehicle (negative control), diluted in supplemented DMEM. Then, cells were detached using trypsin/EDTA solution and gently ruptured by successive passages through 27- and 30-gauge needles in order to obtain free parasites. Samples were centrifuged (2,000 rpm, 10 min), washed with PBS, fixed with 70% ethanol, and stored for 1 day at −20°C. Afterward, samples were processed and stained as described previously ([Munera Lopez et al., 2019]). At least 10,000 tachyzoites per sample were analyzed by flow cytometry measurements, carried out in a BD FACSCalibur equipment. Results were analyzed using FlowJo software 7.6. All assays were performed in duplicates, in two independent experiments.

[5] = test system: T. gondii RH Δhxgprt tachyzoites; assay: Replication assay (tachyzoites per PV); type: cell-based, Toxoplasma gondii; conditions: for % PV (1P): intracellular tachyzoites in Vero cells, 7.5 μM, 2 days of incubation; for increase of % PV with one parasite (% PV (1P)) vs control: 1-h-pretreated extracellular tachyzoites, 5–50 μM, 1 day of incubation without drug
Description: The effect of βCs on the replication process was evaluated on both extracellular and intracellular treated tachyzoites of the strain RH Δhxgprt. In the first case, the procedure followed was described above (see invasion assay), but after allowing the invasion, samples were washed with PBS and incubated for 1 day with supplemented DMEM (without drugs), before fixing and staining. To investigate βCs’ action on intracellular parasites, confluent Vero cells grown in 24-well plates were infected with 2 × 10^6 tachyzoites per well and treated for 2 days with different concentrations of the investigated drugs or the vehicle (DMSO) as negative control. Finally, they were fixed and immunolabeled as detailed previously. The number of tachyzoites per PV was analyzed under a microscope with × 63 magnification. At least 100 PVs selected at random were scored in triplicates, per compound dose, in two independent sets of experiments. Results are depicted as the mean percentage of PVs (% PV) that contained a geometric progression 2^n (with “n” being a natural number ≥ 0) of tachyzoites per PV ± SEM.

[6] = test system: T. gondii RH Δhxgprt tachyzoites; design: method as in Alomar et al. (2013); conditions: extracellular tachyzoites preincubated 1 h, 0 up to ∼50 μM, Vero cells; ref Alomar et al. (2013); cited from earlier work
human topoisomerase II = test system: human topoisomerase II; design: method as in Cao et al., 2005; conditions: 600 μM; ref Cao et al., 2005; cited from earlier work
ctDNA = conditions: pH 7.4, cited from earlier work
[7] = MTT cytotoxicity on hTERT fibroblasts, 4 days; type: cell-based, human; conditions: human, MTT, 4 days of incubation (Table 1 footnote b)
Description: (§1) The same assay was performed for hTERT fibroblasts, incubated for 4 days with different concentrations of 3. Absorbance was read at 540 nm (reference wavelength: 700 nm) in a plate reader (Synergy H1 Hybrid Reader, BioTek). Average absorbance from background wells (without cells, treated as the samples) was subtracted out, to obtain corrected values (A540 corr). The percentage of cell viability was calculated as follows:
(§2) Cellviability(%)=A540corrtreatedcells/A540corruntreatedcells×100
(§3) CC50 values were obtained by nonlinear regression analysis of cell viability (%) vs. log[compound] with a variable Hill’s slope, using the GraphPad Prism 5.03 software. Each concentration was assayed in triplicates, in three independent sets of experiments. To avoid effects of evaporation, outer wells were not used.

[8] = test system: T. gondii RH Δhxgprt tachyzoites; assay: Invasion assay, pretreated extracellular tachyzoites; type: cell-based, Toxoplasma gondii; conditions: extracellular tachyzoites preincubated 1 h, 0 up to ∼50 μM, Vero cells
Description: Extracellular tachyzoites of RH Δhxgprt strain (2 × 10^6) were preincubated for 1 h (at 37°C and 5% CO2) with different doses of the assayed compounds (up to 40–50 μM) or the vehicle (DMSO) diluted in supplemented DMEM. Parasites were, then, centrifuged, resuspended in supplemented DMEM, and were allowed to invade Vero cell monolayers grown on coverslips in 24-well plates by incubation for 10 min on ice followed by 1 h at 37°C. Invasion assay was performed as described elsewhere ([Yañuk et al., 2017]). To facilitate counting, cells were analyzed by indirect immunofluorescence assay (IFA). Immunostaining was performed using anti-SAG1 mouse monoclonal (Novus Biologicals, 1:50)/goat anti-mouse Alexa Fluor 488 (Invitrogen, 1:4,000) antibodies. Fifty random fields per sample, with a similar number of host cells, were analyzed under microscope (Zeiss Axio Observer Colibri 7, magnification × 63). The number of parasitophorous vacuoles per field (PV/field) was counted. Data are presented as means of PV/field ± SEM. Two independent experiments were performed in duplicates.

in vitro = conditions: African green monkey (Cercopithecus aethiops)
[9] = test system: T. gondii RH RFP tachyzoites; assay: Time of removal assay; type: cell-based, Toxoplasma gondii; conditions: for growth recovery after drug removal: followed up to 15 d.p.i.
[10] = test system: T. gondii RH Δhxgprt tachyzoites; assay: Plaque reduction assay; type: cell-based, Toxoplasma gondii
Description: Monolayers of hTERT fibroblasts grown into 24-well plates were infected with 1 × 10^4 tachyzoites per well of the RH Δhxgprt strain. Then, they were washed with PBS and treated with different concentrations of 3 or the vehicle (DMSO) diluted in supplemented DMEM. After 6.5 days of incubation, monolayers were washed, fixed with ethanol (70% v/v), and stained with crystal violet (Sigma). The IC50 value was obtained by nonlinear regression analysis of the number of plaques vs log[3] (variable Hill’s slope). The area of the plaques was analyzed by ImageJ software.

hTERT fibroblasts = assay: MTT cytotoxicity on hTERT fibroblasts, 4 days; type: cell-based, human; conditions: 10 μM, 4 days
Description: as §1, §2, §3

host cells = test system: host cells; design: method as in not given; conditions: Table 1 footnote c, footnote text not given; ref not given; cited from earlier work
T. gondii RH strain = test system: T. gondii RH strain; design: method as in not given; conditions: footnote text not given, ref not given, cited from earlier work
[11] = 72 h, RH RFP strain in hTERT fibroblasts, 3 d.p.i. (Table 1 footnote d), read-out: IC50 (converted)

Row | Structure (SMILES) | γH2A.X levels (T. gondii γH2A.X) | selectivity index (SI) [1] | effect on tachyzoite growth ([1]; RH RFP in hTERT fibroblasts) | CC50 (Vero cells) [µM] | inhibition of topoisomerase I activity (topoisomerase I; 50 μM) | inhibition of topoisomerase I activity (topoisomerase I; 150 μM) | effect on tachyzoite cell cycle (DNA content, G1 vs S/M) [4] | % PV (1P) [5] [%] | inhibition of human topoisomerase II (human topoisomerase II) | CC50 at 4 days [7] [µM] | effect on invasion process (PV/field) [8] | IC50 [1, 11] [µM] | increase of % PV with one parasite (% PV (1P)) vs control [5] | CC50 at 2 days ([3]; Vero cells (monolayers)) [µM] | IC50 (T. gondii RH strain; Table 1 footnote g) [µM] | further results
1 | CC[C@@]1(O)C(=O)OCc2c1cc1n(c2=O)Cc2cc3ccccc3nc2-1 [CPT, camptothecin, reference compound] | notable increase |  |  |  |  |  |  |  |  |  |  |  |  |  |  | 
2 | COc1ccc2c(c1)[nH]c1c(C)nccc12 [Compound 1, harmine] |  | <5 | no major impact | 57 ± 4 | strongly decreases | inhibited | negligible or null effect | 65 | do not inhibit | 49 |  |  |  |  |  | IC50 ([1]; 72 h): > 10 µM; IC50 ([1]; 96 h): > 10 µM; change in % PV with two parasites (% PV (2P)) vs control [2]: sharp increase; CC50 at 2 days [3]: ~60 µM; effect on invasion process (PV/field) [6]: inhibited; overall binding constant to ctDNA (ctDNA; ref Yañuk et al., 2018): 7.7 ± 0.2 × 10^3 M^–1 in bp
3 | COc1ccc2c(c1)[nH]c1c(C)[n+](C)ccc12 [Compound 2, 2-methyl-harminium] |  |  | no major impact |  |  |  | arrest in S/M phases; also recorded: significant enrichment in tachyzoite DNA content compatible with S/M phases | 68 |  |  | negligible or rather low effect | > 10 | around fourfold |  |  | CC50 at 2 days (in vitro): > 500 µM; overall binding constant to ctDNA (ctDNA; ref Denofrio et al., 2020): 5.9 ± 0.3 × 10^3 M^–1 in bp
4 | COc1ccc2c3ccnc(C)c3n(C)c2c1 [Compound 3, 9-methyl-harmine] | decreased basal levels | 17.2 | strong growth inhibition | 59 ± 8 | strongly decreases | inhibited | arrest in S/M phases; also recorded: significant enrichment in tachyzoite DNA content compatible with S/M phases | 78 | do not inhibit | 31 | negligible or rather low effect | 1.6 ± 0.2 | fivefold | ~60 |  | IC50 ([1]; 96 h, RH RFP strain in hTERT fibroblasts, 4 d.p.i. (Table 1 footnote e), read-out: IC50 (converted)): 1.8 µM; γH2A.X levels when co-administered with CPT (T. gondii γH2A.X; 3 7.5 μM plus CPT 10 μM): reduced them significantly; growth recovery after drug removal ([9]; 1.7 and 2 days of treatment, 7.5 μM): significant reduction of tachyzoite growth; growth recovery after drug removal ([9]; 1.7 and 2 days of treatment, 10 μM): total growth inhibition; growth recovery after drug removal ([9]; 0.7 days of treatment, 5, 7.5 and 10 μM): not effective; parasite growth under continuous treatment ([9]; continuous treatment up to 15 days, 5, 7.5 and 10 μM): complete inhibition of parasite growth; parasite growth in plaque assay ([10]; 7.5 μM, 6.5 days, RH Δhxgprt): no parasite growth; IC50 ([10]; Toxoplasma gondii, Fibroblast, 156 h, read-out: IC50 (number of plaques)): 3.1 µM; overall binding constant to ctDNA (ctDNA; ref Vignoni et al., 2014): 16.8 ± 0.5 × 10^3 M^–1 in bp; impact on fibroblast metabolism (MTT) (hTERT fibroblasts): no impact
5 | CCc1nc(N)nc(N)c1-c1ccc(Cl)cc1 [Pyrimethamine, pyrimethamine] |  |  |  |  |  |  |  |  |  |  |  |  |  |  | 0.8 | CC50 (host cells): > 40.2 µM; IC50 (T. gondii RH strain; reported on RH strain, Table 1 footnote c): 3.4 µM
6 | Nc1ccc(S(=O)(=O)Nc2ncccn2)cc1 [SDZ, sulfadiazine, reference compound] |  |  |  |  |  |  |  |  |  |  |  | ~500 |  | > 500 | 2400 to 2800 | decrease in RFU values with respect to untreated controls ([1]; SDZ 250 and 500 μM, RH RFP in hTERT fibroblasts): ~50%; IC50 (T. gondii RH strain; Table 1 footnote h): 308 µM
